Measured values published in US11639373B2, “Therapeutic and diagnostic agents for cancer” (TECHNISCHE UNIVERSITÄT MÜNCHEN, priority 2018, dated 2023).
Read-outs that look alike come from different tables or passages of the source. Non-standard residues stand in square brackets, D forms with d. Residues, ends and D or L forms follow the SMILES beside them. Groups on a side chain read outwards from the residue. ξ: configuration not given here. *: point of attachment. X3 = C[N+](C)(Cc1cn([C@@H](CCCNC(=N)N)C(=O)*)nn1)C[B-](F)(F)F; X2 = C[N+](C)(Cc1cn([C@@H](CCCCN)C(=O)*)nn1)C[B-](F)(F)F; DOTA = O=C(O)CN1CCN(CC(=O)O)CCN(CC(=O)*)CCN(CC(=O)O)CC1; X5 = CC(C)[C@H](C(=O)*)n1cc(C[N+](C)(C)C[B-](F)(F)F)nn1; X4 = C[N+](C)(Cc1cn(-c2ccc(C(=O)*)cc2)nn1)C[B-](F)(F)F; dTyr(3-I) = N[C@H](Cc1ccc(O)c(I)c1)C(=O)O; 2Nal = N[C@@H](Cc1ccc2ccccc2c1)C(=O)O; X1 = OCC1O[C@H](*)C(O)C(O)[C@H]1O; pS = N[C@@H](COP(=O)(O)O)C(=O)O; dNMeOrn = CN[C@H](CCCN)C(=O)O; 4Amb = NCc1ccc(C(=O)O)cc1; Mercaptoacetyl = O=C(CS)*; ξNMeOrn = CNC(CCCN)C(=O)O; 4Abz = Nc1ccc(C(=O)O)cc1; X6 = CC(=O)c1ccc(N*)cc1; Dap = NC[C@H](N)C(=O)O

Tests used:
human CXCR4 = target: T1, human CXCR4 (Homo sapiens, UniProt P61073); assay: Competitive binding assay to human CXCR4, Jurkat cells, [125I]FC131 radioligand
T1 construct: using CXCR4 positive Jurkat human T-cell leukemia cells; endogenous in cells; host or cells: Jurkat human T-cell leukemia cells

[1] = Lipophilicity, shake flask n-octanol/PBS; type: physicochemical; conditions: Table 1d
Experimental: To a solution of app. 0.5 MBq of radiolabeled peptide in 500 μL of PBS (pH 7.4), 500 μL of octanol were added (n=6). Vials were vortexed vigorously for 3 min. To achieve quantitative phase separation, the vials were centrifuged at 14,600×g for 6 min in a Biofuge 15 (Heraeus Sepatech, Osterode, Germany). The activity concentrations in 100 μL-samples of both the aqueous and the organic phase were measured in a γ-counter. Both the partition coefficient Pow, which is defined as the molar concentration ratio of a single species A between octanol and an aqueous phase at equilibrium, and log Pow, which is an important parameter used to characterize lipophilicity of a compound, were calculated.
Internalization and cell efflux studies of the respective ligands were performed using a previously published protocol (Poschenrieder et al., First 18F-Labeled Pentixafor-Based Imaging Agent for PET Imaging of CXCR4 Expression In Vivo. 2016). The distribution coefficients of the respective ^68Ga- and […] peptides in octanol and PBS buffer were determined applying the shake flask method as described previously (Weineisen et al., Synthesis and preclinical evaluation of DOTAGA-conjugated PSMA ligands for functional imaging and endoradiotherapy of prostate cancer. EJNMMI Research. 2014; 1:1-15).
Lipophilicity was measured using the shake flask method. The logarithm of the partition coefficient P, where P is the ratio of activity distribution of the respective ^68Ga/^177Lu-labeled peptide in n-octanol and PBS are listed in Table 2.

murine CXCR4 = target: T2, murine CXCR4 (Mus musculus, UniProt P70658); assay: Competitive binding assay to murine CXCR4, Eμ-Myc1080 cells, [125I]CPCR4.3 radioligand
T2 construct: The murine CXCR4 expressing cell line Ep-Myc1080; endogenous in cells; host or cells: Eμ-Myc1080 mouse B-cell lymphoma cells
Experimental: Competition studies addressing the human CXCR4 were performed using CXCR4 positive Jurkat human T-cell leukemia cells and ^125I-FC131 (^125I-2), addressing the murine CXCR4, Ep-Myc1080 mouse B-cell lymphoma cells and ^125I-CPCR4.3 (Demmer et al. A Conformationally Frozen Peptoid Boosts CXCR4 Affinity and Anti-HIV Activity. Angewandte Chemie International Edition. 2012; 51:8110-8113) as the radioligand were utilized as described previously (Poschenrieder et al., The influence of different metal-chelate conjugates of pentixafor on the CXCR4 affinity. EJNMMI research. 2016; 6:1-8).

[2] = Table 1b, 18F-labeling precursors, Jurkat cells, [^125I]FC-131, read-out: IC50 [nM] to hCXCR4
[3] = Table 1d, orn side chain modifications, read-out: IC50 [nM] to hCXCR4
[4] = Table 1b, ^natLu metal complexes, Jurkat cells, [^125I]FC-131, read-out: IC50 [nM] to hCXCR4 [^natLu]
[5] = ^natLu complexes, Jurkat cells, [^125I]FC131 0.1 nM, RT 2 h, mean ± SD (n = 3), read-out: IC50 [nM] for ^natLu-complexes and human CXCR4
[6] = Table 1b, ^natGa metal complexes, Jurkat cells, [^125I]FC-131, read-out: IC50 [nM] to hCXCR4 [^natGa]
[7] = Table 1b, ^natY metal complexes, Jurkat cells, [^125I]FC-131, read-out: IC50 [nM] to hCXCR4 [^natY]
[8] = ^natGa complexes, Jurkat cells, [^125I]FC131 0.1 nM, RT 2 h, mean ± SD (n = 3), read-out: IC50 [nM] for ^natGa-complexes and human CXCR4

T1 sequence (P61073 whole entry): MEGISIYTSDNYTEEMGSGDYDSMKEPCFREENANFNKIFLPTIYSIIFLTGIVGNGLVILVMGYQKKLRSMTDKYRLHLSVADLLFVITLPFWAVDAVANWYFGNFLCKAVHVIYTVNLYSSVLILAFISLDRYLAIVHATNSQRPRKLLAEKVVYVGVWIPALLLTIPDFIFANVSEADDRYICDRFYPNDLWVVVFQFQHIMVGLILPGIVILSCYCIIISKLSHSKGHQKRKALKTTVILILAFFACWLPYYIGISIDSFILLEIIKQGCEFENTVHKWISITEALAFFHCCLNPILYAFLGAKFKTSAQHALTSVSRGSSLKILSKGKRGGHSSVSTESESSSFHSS
T2 sequence (P70658 whole entry): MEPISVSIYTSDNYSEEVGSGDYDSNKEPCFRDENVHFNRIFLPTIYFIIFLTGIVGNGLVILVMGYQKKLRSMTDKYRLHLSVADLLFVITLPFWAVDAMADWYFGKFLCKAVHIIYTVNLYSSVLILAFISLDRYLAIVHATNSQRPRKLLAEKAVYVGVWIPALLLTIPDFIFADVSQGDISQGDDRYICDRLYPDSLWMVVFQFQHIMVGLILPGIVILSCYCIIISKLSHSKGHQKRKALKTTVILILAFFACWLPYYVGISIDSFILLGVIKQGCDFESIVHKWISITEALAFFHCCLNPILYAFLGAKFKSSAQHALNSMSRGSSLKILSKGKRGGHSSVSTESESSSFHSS

CN1C(=O)[C@@H](Cc2ccc(O)c(I)c2)NC(=O)CNC(=O)[C@H](Cc2ccc3ccccc3c2)NC(=O)[C@H](CCCNC(=N)N)NC(=O)[C@H]1CCCNC(=O)c1ccc(-n2cc(C[N+](C)(C)C[B-](F)(F)F)nn2)cc1 [F1, cyclo[i-yorn′(AMBF3(methyl(1H-1,2,3-triazol-4-yl)4-amino)benzoyl-)RNaIG]] (cyclo([2Nal]G[dTyr(3-I)][dNMeOrn](X4)R))
IC50 (human CXCR4; [2]): 134 ± 47 nM

CC(C)[C@H](C(=O)NCC(=O)Nc1ccc(C(=O)NCCC[C@@H]2C(=O)N[C@@H](CCCNC(=N)N)C(=O)N[C@@H](Cc3ccc4ccccc4c3)C(=O)NCC(=O)N[C@H](Cc3ccc(O)c(I)c3)C(=O)N2C)cc1)n1cc(C[N+](C)(C)C[B-](F)(F)F)nn1 [F2, cyclo[i-yorn′(AMBF3(methyl(1H-1,2,3-triazol-4-yl)-vG-4-amino)benzoyl-)RNaIG]] (cyclo([2Nal]G[dTyr(3-I)][dNMeOrn]([4Abz-Gly-X5])R))
IC50 (human CXCR4; [2]): 65.2 ± 10 nM

CN1C(=O)[C@@H](Cc2ccc(O)cc2)NC(=O)CNC(=O)[C@H](Cc2ccc3ccccc3c2)NC(=O)[C@H](CCCNC(=N)N)NC(=O)[C@H]1CCCNC(=O)c1ccc(NC(=O)CNC(=O)[C@H](CCCNC(=N)N)n2cc(C[N+](C)(C)C[B-](F)(F)F)nn2)cc1 [F3b, cyclo[-yorn′(AMBF3(methyl(1H-1,2,3-triazol-4-yl)-rG-4-amino)benzoyl-)RNaIG]] (cyclo([2Nal]G[dY][dNMeOrn]([4Abz-Gly-X3])R))
IC50 (human CXCR4; [2]): 2.4 ± 0.8 nM

CN1C(=O)[C@@H](Cc2ccc(O)c(I)c2)NC(=O)CNC(=O)[C@H](Cc2ccc3ccccc3c2)NC(=O)[C@H](CCCNC(=N)N)NC(=O)[C@H]1CCCNC(=O)c1ccc(NC(=O)CNC(=O)[C@H](CCCCN)n2cc(C[N+](C)(C)C[B-](F)(F)F)nn2)cc1 [F4, cyclo[i-yorn′(AMBF3(methyl(1H-1,2,3-triazol-4-yl)-kG-4-amino)benzoyl-)RNaIG]] (cyclo([2Nal]G[dTyr(3-I)][dNMeOrn]([4Abz-Gly-X2])R))
IC50 (human CXCR4; [2]): 3.8 ± 0.9 nM

CC(=O)c1ccc(NC(=O)[C@@H](C)NC(=O)[C@@H](CCCNC(=N)N)NC(=O)[C@@H](CNC(=O)CO/N=C\c2ccc(F)cc2)NC(=O)CCS[C@H]2OC(CO)[C@@H](O[C@@H]3OC(CO)[C@@H](O)C(O)C3O)C(O)C2O)cc1 (some centres unmarked) [F5]
IC50 (human CXCR4; [3]): 4.6 ± 0.7 nM

CN1C(=O)[C@H](Cc2ccc(O)c(I)c2)NC(=O)CNC(=O)[C@@H](Cc2ccc3ccccc3c2)NC(=O)[C@@H](CCCNC(=N)N)NC(=O)[C@@H]1CCCNC(=O)c1ccc(NC(=O)[C@@H](CC(=O)O)NC(=O)CN2CCN(CC(=O)O)CCN(CC(=O)O)CCN(CC(=O)O)CC2)cc1 [P1]
IC50 (human CXCR4; [4]): 106 ± 10 nM
IC50 (human CXCR4; [5]): 106 ± 10 nM

CN1C(=O)[C@@H](Cc2ccc(O)c(I)c2)NC(=O)CNC(=O)[C@H](Cc2ccc3ccccc3c2)NC(=O)[C@H](CCCNC(=N)N)NC(=O)[C@H]1CCCNC(=O)c1ccc(NC(=O)CNC(=O)[C@H](CN)NC(=O)CN2CCN(CC(=O)O)CCN(CC(=O)O)CCN(CC(=O)O)CC2)cc1 [P2] (cyclo([2Nal]G[dTyr(3-I)][dNMeOrn]([4Abz-Gly-Dap-DOTA])R))
IC50 (human CXCR4; [6]): 3.6 ± 0.7 nM
IC50 (human CXCR4; [7]): 4.1 ± 1.3 nM
IC50 (human CXCR4; [8]): 3.6 ± 0.7 nM

CN1C(=O)[C@@H](Cc2ccc(O)c(I)c2)NC(=O)CNC(=O)[C@H](Cc2ccc3ccccc3c2)NC(=O)[C@H](CCCNC(=N)N)NC(=O)C1CCCNC(=O)c1ccc(NC(=O)CNC(=O)[C@H](CCCCN)NC(=O)CN2CCN(CC(=O)O)CCN(CC(=O)O)CCN(CC(=O)O)CC2)cc1 (stereo partly drawn) [P3] (cyclo([2Nal]G[dTyr(3-I)][ξNMeOrn]([4Abz-Gly-Lys-DOTA])R))
IC50 (human CXCR4; Table 1b, ^natBi metal complexes, Jurkat cells, [^125I]FC-131, read-out: IC50 [nM] to hCXCR4 [^natBi]): 38 ± 25 nM
IC50 (human CXCR4; [6]): 2.4 ± 0.1 nM
IC50 (human CXCR4; [4]): 3.6 ± 1.1 nM
IC50 (human CXCR4; [7]): 2.4 ± 0.2 nM
IC50 (human CXCR4; [8]): 2.4 ± 0.1 nM
IC50 (human CXCR4; [5]): 3.6 ± 1.1 nM

CN1C(=O)[C@@H](Cc2ccc(O)cc2)NC(=O)CNC(=O)[C@H](Cc2ccc3ccccc3c2)NC(=O)[C@H](CCCNC(=N)N)NC(=O)C1CCCNC(=O)c1ccc(NC(=O)CNC(=O)[C@H](CCCCN)NC(=O)CN2CCN(CC(=O)O)CCN(CC(=O)O)CCN(CC(=O)O)CC2)cc1 (stereo partly drawn) [P3b] (cyclo([2Nal]G[dY][ξNMeOrn]([4Abz-Gly-Lys-DOTA])R))
IC50 (human CXCR4; [6]): 8.9 ± 3.8 nM
IC50 (human CXCR4; [4]): 8 ± 3.1 nM
IC50 (human CXCR4; [7]): 6.3 ± 2.5 nM
IC50 (human CXCR4; [8]): 8.9 ± 3.8 nM
IC50 (human CXCR4; [5]): 8 ± 3.1 nM

CC(=O)c1ccc(NC(=O)[C@@H](C)NC(=O)[C@@H](CCCNC(=N)N)NC(=O)[C@@H](CO)NC(=O)[C@@H](CO)NC(=O)[C@@H](CO)NC(=O)CS)cc1 [T1] (Mercaptoacetyl-[dS][dS][dS][dR][dA]-X6)
IC50 (human CXCR4; [3]): 22.9 ± 3.9 nM

C[C@@H](NC(=O)[C@@H](CCCNC(=N)N)NC(=O)[C@H](CC(=O)O)NC(=O)[C@H](CC(=O)O)NC(=O)[C@H](CC(=O)O)NC(=O)CS)C(=O)Nc1ccc(C(=O)O)cc1 [T2] (Mercaptoacetyl-DDD[dR][dA][4Abz]-OH)
IC50 (human CXCR4; [3]): 85.7 ± 5.1 nM
logP [1]: −2.2

C[C@@H](NC(=O)[C@@H](CCCNC(=N)N)NC(=O)[C@H](CN)NC(=O)[C@H](CN)NC(=O)[C@H](CN)NC(=O)CS)C(=O)Nc1ccc(C(=O)O)cc1 [T3] (Mercaptoacetyl-[Dap][Dap][Dap][dR][dA][4Abz]-OH)
IC50 (human CXCR4; [3]): 18.8 ± 8.5 nM
logP [1]: −1.5

C[C@@H](NC(=O)[C@@H](CCCNC(=N)N)NC(=O)[C@H](CO)NC(=O)[C@H](COP(=O)(O)O)NC(=O)[C@H](CO[C@H]1OC(CO)[C@H](O)C(O)C1O)NC(=O)CS)C(=O)Nc1ccc(C(=O)O)cc1 (some centres unmarked) [T4] (Mercaptoacetyl-S(X1)[pS]S[dR][dA][4Abz]-OH)
IC50 (human CXCR4; [3]): 213 ± 22 nM
logP [1]: −2.2

CN1C(=O)[C@@H](Cc2ccc(O)cc2)NC(=O)CNC(=O)[C@H](Cc2ccc3ccccc3c2)NC(=O)[C@H](CCCNC(=N)N)NC(=O)[C@H]1CCCNC(=O)c1ccc(CNC(=O)CN2CCN(CC(=O)O)CCN(CC(=O)O)CCN(CC(=O)O)CC2)cc1 [compound 3, cyclo(D-Tyr^1-D-[NMe]Orn^2(AMBS-DOTA)-Arg^3-Nal^4-Gly^5), reference compound] (cyclo([dY][dNMeOrn]([4Amb-DOTA])R[2Nal]G))
IC50 (murine CXCR4): > 1000 nM

cyclo[i-yorn′(DOTA-ra-(4-amino)benzoyl-)RNaIG [P5]
increase in affinity compared to P2 (human CXCR4; hCXCR4): almost two-fold

cyclo[i-yorn′([^natLu]DOTA-dapG-(4-amino)benzoyl-)RNaIG [^natLu-P2]
improvement of binding affinity by insertion of cationic amino acids in the linker (human CXCR4; hCXCR4, versus ligand with glycine linker only): almost two-fold

cyclo[i-yorn′([^natLu]DOTA-rG-(4-amino)benzoyl-)RNaIG [^natLu-P4]
mIC50[nM] ^natLu complexes and murine CXCR4 (murine CXCR4; ^natLu complexes, Eμ-Myc1080 mouse B-cell lymphoma cells, [^125I]CPCR4.3, mean ± SD (n = 3)): 37.1 ± 2.9 nM
